Like-named read-outs stand apart in the source and are kept apart here.
What was measured:
[1] = Phase 1 single-dose study, safety (treatment-emergent adverse events); type: in vivo, human
Experimental: In healthy subjects with normal renal function, solriamfetol HCl is renally excreted ~90% unchanged within 48 hours of administration. Thus, renal impairment, as well as hemodialysis in individuals with end-stage renal disease (ESRD), could affect the PK of solriamfetol HCl. To ascertain the precise impact of renal impairment and hemodialysis on pharmacokinetics and safety of solriamfetol RCl, a Phase 1, parallel-group, open-label, single-dose study was conducted at 2 U.S. sites. The protocol was approved by the IntegReview Institutional Review Board (Austin, Texas), and the study was conducted in compliance with the protocol, the Guideline for Good Clinical Practice E6; the US Code of Federal Regulations pertaining to conduct and reporting of clinical studies; the Clinical Trials Directive of the European Medicines Agency (Directive 2001/20/EC); and the Declaration of Helsinki. Written informed consent was obtained from each subject before enrollment in the study and before performance of any study-related procedure. See, also, Zomorodi K, Chen D, Lee L, Lasseter K, Marbury T. An Open-Label, Single-Dose, Phase 1 Study of the Pharmacokinetics and Safety of JZP-110 in Subjects With Normal or Impaired Renal Function and With End-Stage Renal Disease Requiring Hemodialysis [abstract]. Sleep. 2017;40 (suppl):A382-383.
Eligible participants were assigned to 1 of 5 groups according to renal disease status as measured by the estimated glomerular filtration rate (eGFR) on the day prior to dosing, calculated using the Modification in Diet in Renal Disease equation. Group 1 consisted of healthy participants with normal renal function (eGFR ≥ 90 mL/min/1.73 m^2) and served as the control group. Groups 2, 3, and 4 had mild, moderate, and severe renal impairment based on eGFRs of 60-89, 30-59, and < 30 mL/min/1.73 m^2, respectively. Group 5 consisted of participants with ESRD who required ≥ 3 hemodialysis treatments per week for the preceding 3 months. […] Group 1 was enrolled last to facilitate matching the mean age, BMI, and sex distribution of Groups 2-5.
(§1) Groups 1-4 received one dose of solriamfetol HCl (89.3 mg; equivalent to 75-mg solriamfetol) on day 1; Group 5 received one dose equivalent to 75-mg dose on day 1 followed by 4-hour hemodialysis (designated Group 5.2), and one dose equivalent to 75-mg solriamfetol on day 8 without hemodialysis (designated Group 5.1). All doses were administered on an empty stomach following an overnight fast except for participants in Group 5, who received a standardized snack on day 7 and breakfast early on day 8 before starting an 8-hour fast. Participants remained fasting for 4 hours after administration, with water allowed except for 1 hour before and after dosing.

[2] = Phase 1 single-dose study, urinary excretion of solriamfetol; type: in vivo, human; conditions: for Fe(0-48), fraction of the dose excreted unchanged in urine in 48 hours, mean ± SD (%CV) / CL renal: single 75-mg dose; for cumulative amount excreted in urine: Group 5 ESRD, 1 participant; for CL renal: both sexes, human, urine, oral, 75 mg, read-out: CLR, renal clearance, mean ± SD (%CV) (converted)
Experimental: as §1
Urine samples were collected predose and for the time intervals of 0-4, 4-8, 8-12, 12-24, and 24-48 hours in Groups 1-3, with additional collection for the 48-72 hour time interval in Groups 4 and 5. During the hemodialysis period on day 1 for Group 5, dialysate samples and pre- and post-dialyzer paired blood samples were collected at pre-dialysis (2 hours), and at 3, 4, 5, and 6 hours following dosing. Urine and dialysate samples were aliquoted into polypropylene tubes for freezing and storage at -70° C. until analysis. All blood, urine, and dialysate samples were shipped on dry ice to a central bioanalytical laboratory.
Bioanalytical analyses were performed by a central laboratory (KCAS, LLC, Shawnee, Kansas) using validated proprietary methods that included extraction/derivatization and liquid chromatography-tandem mass spectrometry (LC-MS/MS). Measurement of solriamfetol was over the linear range of 8.42 to 4,210 ng/mL in plasma, 0.21 to 84.2 µg/mL in urine, and 1.68 to 842 ng/mL in dialysate. Solriamfetol was removed from dialysate samples with use of the Fresenius Optiflux F180NR dialyzer (Fresenius Medical Care, Waltham, Massachusetts). Assay performance was monitored by spiking blank interference free human plasma with positive controls and internal standards to generate standard curve and quality control samples. After derivatization, samples were chromatographed on a C8 reversed phase analytical HPLC (high-performance liquid chromatography) column, with subsequent monitoring using an API4000 LC-MS/MS unit (Sciex, Framingham, Massachusetts). Quantification was based on setting a calibration graph using the internal standard method. Coefficients of variation (CVs) for quality control samples were 3.2% to 6.0% for the plasma samples, 1.6% to 5.6% for the urine samples, and 3.5% to 7.1% for the dialysate samples.
The following plasma PK parameters were evaluated using non-compartmental analysis in Phoenix® WinNonlin® Version 6.3: Cmax; time to reach Cmax following drug administration (tmax); t½; area under the plasma concentration-time curve from time zero to time of last quantifiable concentration (AUCt); AUC from time zero to infinity (AUC∞); apparent total clearance of the drug from plasma after oral administration (CL/F); and apparent volume of distribution (Vd/F). The PK parameters for solriamfetol in urine included the amount of unchanged drug excreted in urine (Ae) over 48 or 72 hours; the fraction of the dose excreted unchanged in urine (Fe); and renal clearance of the drug (CLR). For participants on hemodialysis (Group 5), the additional PK parameters included the amount of solriamfetol cleared by the 4-hour hemodialysis (Adial); the fraction of dose removed by the 4-hour hemodialysis (Fdial); and hemodialysis clearance (CLdial) calculated as CLdial = Adial/AUCdial where AUCdial is the area under the pre-dialyzer plasma concentration-time curve during the hemodialysis period.

[3] = Group 1 normal renal function (n = 6), single 75-mg dose
[4] = Group 2 mild renal impairment (n = 6), single 75-mg dose
[5] = Group 3 moderate renal impairment (n = 6), single 75-mg dose
[6] = Group 4 severe renal impairment (n = 6), single 75-mg dose
[7] = Group 5.1 ESRD without hemodialysis (n = 6), single 75-mg dose
[8] = Group 5.2 ESRD with hemodialysis (n = 7), single 75-mg dose
[9] = Group 3 moderate renal impairment
[10] = Group 4 severe renal impairment

## NC(=O)OC[C@H](N)Cc1ccccc1 [solriamfetol, [R]-2-amino-3-phenylpropylcarbamate]
[1]; 1 participant, Group 5, 6 days after dosing, reference range 8-40 IU/L
  aspartate aminotransferase (AST), increase to: 66 IU/L
[1]; 1 participant, Group 5, 6 days after dosing, reference range 8-54 IU/L
  alanine aminotransferase (ALT), increase to: 144 IU/L
[1]; [3]
  ALT increased, number (%) of participants: 0
  AST increased, number (%) of participants: 0
  Any TEAE, number (%) of participants: 0
  Headache, number (%) of participants: 0
  Nausea, number (%) of participants: 0
  Skin abrasion, number (%) of participants: 0
[1]; [4]
  ALT increased, number (%) of participants: 0
  AST increased, number (%) of participants: 0
  Any TEAE, number (%) of participants: 1 (17%)
  Headache, number (%) of participants: 0
  Nausea, number (%) of participants: 0
  Skin abrasion, number (%) of participants: 1 (17%)
[1]; [5]
  ALT increased, number (%) of participants: 0
  AST increased, number (%) of participants: 0
  Any TEAE, number (%) of participants: 1 (17%)
  Headache, number (%) of participants: 1 (17%)
  Nausea, number (%) of participants: 0
  Skin abrasion, number (%) of participants: 0
[1]; [6]
  ALT increased, number (%) of participants: 0
  AST increased, number (%) of participants: 0
  Any TEAE, number (%) of participants: 0
  Headache, number (%) of participants: 0
  Nausea, number (%) of participants: 0
  Skin abrasion, number (%) of participants: 0
[1]; [7]
  ALT increased, number (%) of participants: 0
  AST increased, number (%) of participants: 0
  Any TEAE, number (%) of participants: 1 (17%)
  Headache, number (%) of participants: 0
  Nausea, number (%) of participants: 1 (17%)
  Skin abrasion, number (%) of participants: 0
[1]; [8]
  ALT increased, number (%) of participants: 1 (14%)
  AST increased, number (%) of participants: 1 (14%)
  Any TEAE, number (%) of participants: 1 (14%)
  Headache, number (%) of participants: 0
  Nausea, number (%) of participants: 0
  Skin abrasion, number (%) of participants: 0
[1]; all groups, 31 participants (13%)
  participants reporting treatment-emergent adverse events, total: 4
[1]; all groups, single 75-mg dose
  deaths or other serious AEs: no deaths or other serious AEs
  severity of all TEAEs as considered by the investigator: mild
  vital sign and ECG measurements: No clinically significant abnormal findings
[2]; Group 1 normal renal function
  Fe(0-48), fraction of the dose excreted unchanged in urine in 48 hours, mean ± SD (%CV): 85.8%
  CL renal: 283 mL/min
[2]; Group 2 mild renal impairment
  Fe(0-48), fraction of the dose excreted unchanged in urine in 48 hours, mean ± SD (%CV): 80.0%
  CL renal: 155 mL/min
[2]; [9]
  Fe(0-48), fraction of the dose excreted unchanged in urine in 48 hours, mean ± SD (%CV): 66.4%
  CL renal: 96.7 mL/min
[2]; [10]
  Fe(0-48), fraction of the dose excreted unchanged in urine in 48 hours, mean ± SD (%CV): 57.1%
  CL renal: 63.3 mL/min
[2]; with hemodialysis
  cumulative amount excreted in urine: 42.1%
[2]; without hemodialysis
  cumulative amount excreted in urine: 52.9%
[2]; severe renal impairment
  mean percentage of dose recovered in urine as unchanged drug over 72 hours: 64.0%
